Data reported in US7999108B2, “Benzyl amines, a process for their production and their use as anti-inflammatory agents” (Bayer Schering Pharma AG, priority 2006, dated 2011).

Tests used:
[1] = target: T1, glucocorticoid receptor (GR) (Homo sapiens, UniProt P04150); assay: Binding to the glucocorticoid receptor (GR), recombinantly produced receptor, Sf9 cytosol preparations; conditions: recombinant GR, cytosol of baculovirus-infected Sf9 cells, reference [3H]-dexamethasone
T1 construct: made in house; host or cells: Sf9 insect cells infected with recombinant baculovirus; cytosol preparation
T1 sequence (P04150 1-777): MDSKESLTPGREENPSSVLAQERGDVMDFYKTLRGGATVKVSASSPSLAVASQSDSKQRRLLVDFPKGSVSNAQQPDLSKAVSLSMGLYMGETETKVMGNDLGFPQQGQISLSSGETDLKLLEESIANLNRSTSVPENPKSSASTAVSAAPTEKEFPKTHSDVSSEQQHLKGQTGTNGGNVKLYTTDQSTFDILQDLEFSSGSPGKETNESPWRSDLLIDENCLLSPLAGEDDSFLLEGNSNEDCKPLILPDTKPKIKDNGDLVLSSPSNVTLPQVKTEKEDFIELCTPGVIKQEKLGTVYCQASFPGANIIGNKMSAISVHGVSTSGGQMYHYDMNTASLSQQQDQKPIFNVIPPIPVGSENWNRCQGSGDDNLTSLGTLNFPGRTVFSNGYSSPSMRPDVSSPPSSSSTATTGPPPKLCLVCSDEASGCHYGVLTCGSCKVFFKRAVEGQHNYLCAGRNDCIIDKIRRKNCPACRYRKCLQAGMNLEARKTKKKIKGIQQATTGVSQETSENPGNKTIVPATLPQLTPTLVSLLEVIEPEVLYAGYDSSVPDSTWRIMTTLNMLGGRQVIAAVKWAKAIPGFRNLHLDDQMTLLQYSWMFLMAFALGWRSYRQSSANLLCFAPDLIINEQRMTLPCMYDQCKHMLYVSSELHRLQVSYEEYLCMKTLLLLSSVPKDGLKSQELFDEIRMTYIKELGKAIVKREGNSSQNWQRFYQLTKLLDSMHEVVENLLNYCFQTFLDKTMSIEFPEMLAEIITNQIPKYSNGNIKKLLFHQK
From the text: The binding of the substances to the glucocorticoid receptor (GR) and other steroid hormone receptors (mineral corticoid receptor (MR), progesterone receptor (PR) and androgen receptor (AR)) is examined with the aid of recombinantly produced receptors. Cytosol preparations of Sf9 cells, which had been infected with recombinant baculoviruses, which code for the GR, are used for the binding studies. In comparison to reference substance [^3H]-dexamethasone, the substances show a high to very high affinity to GR.

[2] = test system: secretion of cytokine IL-8 in human monocyte cell line THP-1 triggered by lipopolysaccharide (LPS); assay: Inhibition of LPS-triggered IL-8 secretion in THP-1 cells (ELISA); assay type: cell-based; conditions: IL-8 in supernatant by ELISA, read-out: IC50(IL8)
Protocol: The concentration of the cytokines was determined in the supernatant by means of commercially available ELISA kits.

Compound `COc1cccc(C(Nc2cccc3nc(C)ccc23)C(O)(CCl)C(F)(F)F)c1` (centres unmarked) [Example 3] has an IC50 [1] of 64 nM and an IC50 [2] of 25 nM.
